Four molecules from patent publication US20240141061A1, “NOVEL ANTIBODY AGAINST CD55 AND USE THEREOF” (SG MEDICAL INC, priority 2021, published 2024) can be followed below.

The subject of assay [1] is Burkitt lymphoma BJAB cells. Description: CDC / apoptosis by FACS (annexin V/7-AAD) in BJAB cells with complement human serum. It is filed as cell-based. The note with it: 20 μg/mL rituximab alone, 50% complement human serum, 1 hour. From the text: BJAB cells have complement resistance and this is due to the expression of CD55 (Golay, et al., Blood, 95 (12):3900-8, 2000). For this reason, they show low response to rituximab the main therapeutic mechanism of which is CDC (complement-dependent cytotoxicity). In order to confirm the possibility of improving the therapeutic effect of rituximab for Burkitt lymphoma, which is known as malignant B cell lymphoma, the apoptotic ability of co-administration with EP-10H in Burkitt lymphoma BJAB cells was investigated. For investigation of the effect of co-administration, 5×10^5 BJAB cells were cultured for 1 hour under the condition of 37° C. and 5% CO2 after treating with 100 μL of RPMI supplemented with 50% complement human serum (Sigma, USA), containing 50 μg/mL of 4-1H or EP-10H and 20 μg/mL of rituximab. Then, CDC was observed by identifying apoptotic cells with Attune N×T (ThermoFisher Scientific, USA), which is a FACS analysis equipment, using an FITC annexin V apoptosis detection kit with 7-AAD (BioLegend, USA) (FIG. 4). […] It was confirmed that this effect was more significant for EP-10H having higher affinity for CD55.
The apoptotic ability of the CD20×CD55 bispecific antibody was investigated by the method of Example 10-1. […]
A general note: Flow cytometry measures light scatter and fluorescence of single cells or particles in a stream.

A further assay concerns Ramos-RR cells. Nature of the assay: CDC / apoptosis by FACS in rituximab-resistant Ramos-RR cells with complement human serum. It is filed as cell-based. To be noted: rituximab alone, method of Example 10-1.
Another assay deals with Ramos cells. Nature of the assay: CDC / apoptosis by FACS in Ramos cells with complement human serum. To be noted: rituximab alone, method of Example 10-1. It is filed as cell-based.
The subject of another assay is PC9-GR cells. Description: Apoptosis by FACS in gefitinib-resistant PC9-GR cells. It is filed as cell-based. To be noted: 5 μg/mL gefitinib alone, 24 hours. The protocol: (§1) 24 hours later, after treating with 5 μg/mL gefitinib or 5 μg/mL gefitinib and 5 μg/mL 4-1H or EP-10H diluted with 500 μL of RPMI, the cells were cultured again for 24 hours under the condition of 37° C. and 5% CO2. Then, apoptotic cells were analyzed with the FACS analysis equipment Attune N×T using 7-AAD and an FITC annexin V apoptosis detection kit (FIG. 7b).

The subject of the next assay is PC9 NSCLC cells. Description: Apoptosis by FACS in PC9 NSCLC cells. It is filed as cell-based. The note with it: 5 μg/mL gefitinib alone, 24 hours. The procedure:
as §1

The next assay relates to K562-IR cells. Nature of the assay: Apoptosis by FACS in imatinib-resistant K562-IR cells. It is filed as cell-based. The note with it: 2 μM imatinib alone, 24 hours. The protocol:
(§2) Immediately thereafter, the cells were treated with 2 μM imatinib or with 2 μM imatinib and 10 μg/mL 4-1H or EP-10H diluted with 500 μL of RPMI, and then cultured under the condition of 37° C. and 5% CO2 for 24 hours. Then, apoptotic cells were analyzed with the FACS analysis equipment Attune N×T using 7-AAD and an FITC annexin V apoptosis detection kit (FIG. 6b).

The next assay concerns K562 cells. Description: Apoptosis by FACS in K562 cells. The note with it: 2 μM imatinib alone, 24 hours. It is filed as cell-based. The procedure:
as §2

For assay [2], the target named is T1, recombinant human CD55 (R&D Systems 2009-CD/CF) (human, UniProt P08174 35-353).
T1 construct: Bought recombinant protein coated on ELISA plates; also called decay-accelerating factor; DAF
T1 sequence (looked up): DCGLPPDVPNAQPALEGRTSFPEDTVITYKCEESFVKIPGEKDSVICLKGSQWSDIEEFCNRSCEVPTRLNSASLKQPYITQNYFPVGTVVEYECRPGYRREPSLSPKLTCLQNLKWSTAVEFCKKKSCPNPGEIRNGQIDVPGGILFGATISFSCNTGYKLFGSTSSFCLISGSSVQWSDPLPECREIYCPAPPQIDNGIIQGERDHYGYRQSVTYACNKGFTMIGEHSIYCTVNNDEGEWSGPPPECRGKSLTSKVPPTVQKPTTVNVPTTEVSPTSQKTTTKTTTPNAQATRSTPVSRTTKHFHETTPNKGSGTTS
Description: indirect ELISA, recombinant human CD55 coated. (In an ELISA, binding on a coated surface is turned into a signal by an enzyme label.)

The target of assay [3] is T2, CD55 on cells (BJAB, Ramos, Ramos-RR, K562, K562-IR, PC9, PC9-GR) (UniProt P08174 35-353, limits assumed).
T2 construct: whole, on cells; Endogenous CD55 on cell lines used for flow cytometry and cell death assays; also called CD55 receptor
T2 sequence (looked up): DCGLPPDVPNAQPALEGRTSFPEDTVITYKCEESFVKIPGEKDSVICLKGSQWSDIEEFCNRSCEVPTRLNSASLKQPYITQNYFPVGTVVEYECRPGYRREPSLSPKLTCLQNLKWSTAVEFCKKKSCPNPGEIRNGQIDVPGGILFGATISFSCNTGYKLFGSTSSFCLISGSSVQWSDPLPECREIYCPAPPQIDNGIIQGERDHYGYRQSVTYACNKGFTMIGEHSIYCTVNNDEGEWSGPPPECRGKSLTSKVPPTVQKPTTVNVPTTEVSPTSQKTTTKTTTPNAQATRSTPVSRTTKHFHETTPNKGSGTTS
Description: flow cytometry, Ramos and Ramos-RR cells stained with 10 µg/mL EP-10H and anti-human IgG Alexa Fluor 488. The protocol: 5×10⁵ Ramos or Ramos-RR cells were suspended in PBS containing or not containing 10 μg/mL of the EP-10H monoclonal antibody and cultured at 4° C. for 1 hour. The culture was centrifuged at 4,000 rpm for 5 minutes and centrifuged again at 4,000 rpm for 5 minutes after washing with 100 μL of PBS. After treating the cells with goat anti-human IgG antibody diluted to 1:100 using PBS and Alexa Fluor 488 (ThermoFisher Scientific, USA), they were incubated at 4° C. for 30 minutes in the shade. The fluorescence-stained cells were washed with PBS, suspended in 400 μL of PBS and then analyzed using Attune N×T (ThermoFisher Scientific, USA), which is a FACS analysis equipment.

On to rituximab [reference compound], for which the “response to rituximab (CDC, apoptotic cells)” value in [1] was “low response”. Moreover, the induction of apoptosis result with Ramos-RR cells was “the induction of apoptosis in the Ramos-RR cells was lower than in the Ramos cells”; in the assay with Ramos cells, “induced apoptosis”.
With `COc1cc2ncnc(Nc3ccc(F)c(Cl)c3)c2cc1OCCCN1CCOCC1` [Gefitinib, gefitinib, reference compound], the induction of apoptosis entry is “did not show the effect” in the assay with PC9-GR cells and “induced apoptosis” in the assay on PC9 NSCLC cells.
In the case of `Cc1ccc(NC(=O)c2ccc(CN3CCN(C)CC3)cc2)cc1Nc1nccc(-c2cccnc2)n1` [Imatinib, imatinib, reference compound], the induction of apoptosis entry in the assay with K562-IR cells is on record as “did not show the effect”; with K562 cells, “induced apoptosis”.

B1: EP-10H (antibody, V domains shown)
VH: EVQLVESGGGLVQPGGSLRLSCAASGFTFSDRGMAWVRQAPGKGLEWVSGISSSGRYTYYAPAVKGRATISRDNSKNTLYLQMNSLRAEDTAVYYCAKNAVAGGWHAAYIDAWGQGTTVTVSS
VL: SYELTQPPSVSVSPGQTASITCSGGGGSYGWYQQKPGQSPVTVIYWNDKRPSGIPERFSGSKSGNTATLTISGTQAMDEADYYCGGWDSSTYAIFGGGTKLTVL
notes: Tested as full-length IgG; Differs from G4-1H only at the H100A site (G to V); also called EP-10H monoclonal antibody; EP-10H antibody
In the case of B1, the binding result in [2] and in assay [3] was “binds” in each case.
